Results published in US20220056037A1 (SPV THERAPEUTICS INC., priority 2018, published 2022).
Like-named read-outs stand apart in the source and are kept apart here.

Assays:
CDK4-CYCLIND1 = target: T1, CDK4-CYCLIND1 (Homo sapiens, UniProt P11802); assay: Inhibition assay, microfluidic LabChip (Nanosyn); assay type: biochemical; conditions: Table 2; ATP 200 μM; read-out: CDK4 IC50
T1 construct: purchased Invitrogen
Experimental: (§1) The reaction was terminated by the addition of EDTA. The plates were analyzed using a Caliper LabChip 3000.
(§2) Additional inhibition assays were performed as described above.

CDK6-CYCLIND3 = target: T2, CDK6-CYCLIND3 (Homo sapiens, UniProt Q00534); assay: Inhibition assay, microfluidic LabChip (Nanosyn); assay type: biochemical; conditions: ATP 300 μM
T2 construct: purchased Carna
Experimental: as §1, §2

T1 sequence (P11802 whole entry): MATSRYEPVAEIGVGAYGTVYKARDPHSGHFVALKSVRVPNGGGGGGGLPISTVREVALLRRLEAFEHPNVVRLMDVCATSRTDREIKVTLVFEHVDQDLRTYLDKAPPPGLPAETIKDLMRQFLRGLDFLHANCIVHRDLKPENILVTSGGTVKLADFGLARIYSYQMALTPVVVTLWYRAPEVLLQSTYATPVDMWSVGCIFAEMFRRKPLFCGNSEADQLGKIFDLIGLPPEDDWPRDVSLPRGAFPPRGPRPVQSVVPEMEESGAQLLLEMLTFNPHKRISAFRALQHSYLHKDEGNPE
T1 sequence (P24385 whole entry partner): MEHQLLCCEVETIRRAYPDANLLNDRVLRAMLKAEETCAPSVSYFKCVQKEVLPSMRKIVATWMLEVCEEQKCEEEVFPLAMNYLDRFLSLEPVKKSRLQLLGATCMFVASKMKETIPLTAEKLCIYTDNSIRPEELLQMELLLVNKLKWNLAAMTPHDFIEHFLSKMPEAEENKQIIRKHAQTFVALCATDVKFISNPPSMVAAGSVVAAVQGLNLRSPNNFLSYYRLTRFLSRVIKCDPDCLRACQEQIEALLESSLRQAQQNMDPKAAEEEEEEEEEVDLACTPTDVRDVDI
T2 sequence (Q00534 whole entry): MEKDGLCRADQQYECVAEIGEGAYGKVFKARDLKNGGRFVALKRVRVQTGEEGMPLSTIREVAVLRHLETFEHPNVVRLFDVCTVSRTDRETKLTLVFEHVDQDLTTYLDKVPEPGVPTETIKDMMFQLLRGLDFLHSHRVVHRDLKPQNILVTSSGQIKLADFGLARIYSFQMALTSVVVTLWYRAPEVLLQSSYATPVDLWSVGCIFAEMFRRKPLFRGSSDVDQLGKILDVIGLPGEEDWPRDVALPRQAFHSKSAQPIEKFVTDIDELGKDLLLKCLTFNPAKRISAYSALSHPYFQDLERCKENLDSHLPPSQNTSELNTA
T2 sequence (P30281 whole entry partner): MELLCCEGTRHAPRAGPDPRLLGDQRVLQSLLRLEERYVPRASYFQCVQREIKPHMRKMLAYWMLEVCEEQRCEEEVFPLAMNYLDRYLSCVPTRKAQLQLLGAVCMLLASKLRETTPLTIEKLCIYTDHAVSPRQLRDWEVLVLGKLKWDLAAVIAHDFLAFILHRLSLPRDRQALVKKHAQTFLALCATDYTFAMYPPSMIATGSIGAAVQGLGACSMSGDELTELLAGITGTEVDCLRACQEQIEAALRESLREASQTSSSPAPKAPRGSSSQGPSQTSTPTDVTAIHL

Compound: CN(C)C(=O)c1c(F)c2cnc(Nc3ccc(N4CCNCC4)cn3)nc2n1C1CCCC1 [Compound A1, 7-cyclopentyl-5-fluoro-N,N-dimethyl-2-((5-(piperazin-1-yl)pyridin-2-yl)amino)-7H-pyrrolo[2,3-d]pyrimidine-6-carboxamide]
- IC50 (CDK4-CYCLIND1): 38.7 nM
- IC50 (CDK6-CYCLIND3; Table 2, read-out: CDK6 IC50): 54.3 nM

Compound: CN1CCN(c2ccc(Nc3ncc4c(F)c(C(=O)N(C)C)n(C5CCCC5)c4n3)nc2)CC1 [Compound A2]
- IC50 (CDK4-CYCLIND1): 37.9 nM
- IC50 (CDK6-CYCLIND3; Table 2, read-out: CDK6 IC50): 54.3 nM

Compound: CN(C)CCOc1ccc(Nc2ncc3c(F)c(C(=O)N(C)C)n(C4CCCC4)c3n2)nc1 [Compound A3, 7-cyclopentyl-2-((5-(2-(dimethylamino)ethoxy)pyridin-2-yl)amino)-5-fluoro-N,N-dimethyl-7H-pyrrolo[2,3-d]pyrimidine-6-carboxamide]
- IC50 (CDK4-CYCLIND1): 48 nM
- IC50 (CDK6-CYCLIND3; Table 2, read-out: CDK6 IC50): 64.5 nM

Compound: CN(C)CCOc1ccc(Nc2ncc3cc(C(=O)N(C)C)n(C4CCCC4)c3n2)nc1 [Compound A4, 7-cyclopentyl-2-((5-(2-(dimethylamino)ethoxy)pyridin-2-yl)amino)-N,N-dimethyl-7H-pyrrolo[2,3-d]pyrimidine-6-carboxamide]
- IC50 (CDK4-CYCLIND1): 18.9 nM
- IC50 (CDK6-CYCLIND3; Table 2, read-out: CDK6 IC50): 34.9 nM

Compound: CN(C)C(=O)c1cc2cnc(Nc3ccc(OCCN4CCCC4)cn3)nc2n1C1CCCC1 [Compound A5, 7-cyclopentyl-N,N-dimethyl-2-((5-(2-(pyrrolidin-1-yl)ethoxy)pyridin-2-yl)amino)-7H-pyrrolo[2,3-d]pyrimidine-6-carboxamide]
- IC50 (CDK4-CYCLIND1): 19.3 nM
- IC50 (CDK6-CYCLIND3; Table 2, read-out: CDK6 IC50): 50.6 nM

Compound: CN(C)C(=O)c1cc2cnc(Nc3ccc(OCCN4CCCCC4)cn3)nc2n1C1CCCC1 [Compound A6, 7-cyclopentyl-N,N-dimethyl-2-((5-(2-(piperidin-1-yl)ethoxy)pyridin-2-yl)amino)-7H-pyrrolo[2,3-d]pyrimidine-6-carboxamide]
- IC50 (CDK4-CYCLIND1): 15.2 nM
- IC50 (CDK6-CYCLIND3; Table 2, read-out: CDK6 IC50): 36.4 nM

Compound: CN(C)CCOc1ccc(Nc2ncc3c(F)c(C(=O)N(C)C)n(C4CCCC4)c3n2)cc1 [Compound A7, 7-cyclopentyl-2-((4-(2-(dimethylamino)ethoxy)phenyl)amino)-5-fluoro-N,N-dimethyl-7H-pyrrolo[2,3-d]pyrimidine-6-carboxamide]
- IC50 (CDK4-CYCLIND1): 22.2 nM
- IC50 (CDK6-CYCLIND3; Table 2, read-out: CDK6 IC50): 63 nM

Compound: CN(C)C(=O)c1cc2cnc(Nc3ccc(OCCN4CCCC4)nc3)nc2n1C1CCCC1 [Compound A8, 7-cyclopentyl-N,N-dimethyl-2-((6-(2-(pyrrolidin-1-yl)ethoxy)pyridin-3-yl)amino)-7H-pyrrolo[2,3-d]pyrimidine-6-carboxamide]
- IC50 (CDK4-CYCLIND1): 4.98 nM
- IC50 (CDK6-CYCLIND3; Table 2, read-out: CDK6 IC50): 23.6 nM

Compound: CN(C)C(=O)c1cc2cnc(Nc3ccc(N4CCN5CCC4CC5)cn3)nc2n1C1CCCC1 [Compound A9, 2-((5-(1,4-diazabicyclo[3.2.2]nonan-4-yl)pyridin-2-yl)amino)-7-cyclopentyl-N,N-dimethyl-7H-pyrrolo[2,3-d]pyrimidine-6-carboxamide]
- IC50 (CDK4-CYCLIND1): 21 nM
- IC50 (CDK6-CYCLIND3; Table 2, read-out: CDK6 IC50): 54.9 nM

Compound: CN(C)C(=O)c1c(F)c2cnc(Nc3ccc(N4CCN5CCC4CC5)cn3)nc2n1C1CCCC1 [Compound A10, 2-((5-(1,4-diazabicyclo[3.2.2]nonan-4-yl)pyridin-2-yl)amino)-7-cyclopentyl-5-fluoro-N,N-dimethyl-7H-pyrrolo[2,3-d]pyrimidine-6-carboxamide]
- IC50 (CDK4-CYCLIND1): 30.4 nM
- IC50 (CDK6-CYCLIND3; Table 2, read-out: CDK6 IC50): 50 nM

Compound: CC(C)N1CCN(c2ccc(Nc3ncc4cc(C(=O)N(C)C)n(C5CCCC5)c4n3)cc2F)CC1 [Compound A11, 7-cyclopentyl-2-((3-fluoro-4-(4-isopropylpiperazin-1-yl)phenyl)amino)-N,N-dimethyl-7H-pyrrolo[2,3-d]pyrimidine-6-carboxamide]
- IC50 (CDK4-CYCLIND1): 3.88 nM
- IC50 (CDK6-CYCLIND3; Table 2, read-out: CDK6 IC50): 12 nM

Compound: CN(C)C(=O)c1cc2cnc(Nc3ccc(N4CCNCC4)cn3)nc2n1C12CC(C1)C2 [Compound A12, 7-(bicyclo[1.1.1]pentan-1-yl)-N,N-dimethyl-2-((5-(piperazin-1-yl)pyridin-2-yl)amino)-7H-pyrrolo[2,3-d]pyrimidine-6-carboxamide]
- IC50 (CDK4-CYCLIND1): 12.4 nM
- IC50 (CDK6-CYCLIND3; Table 2, read-out: CDK6 IC50): 10 nM

Compound: CN(C)C(=O)c1cc2cnc(Nc3ccc(C4=CCNCC4)cn3)nc2n1C12CC(C1)C2 [Compound A13, 7-(bicyclo[1.1.1]pentan-1-yl)-N,N-dimethyl-2-((1′,2′,3′,6′-tetrahydro-[3,4′-bipyridin]-6-yl)amino)-7H-pyrrolo[2,3-d]pyrimidine-6-carboxamide]
- IC50 (CDK4-CYCLIND1): 14.7 nM
- IC50 (CDK6-CYCLIND3; Table 2, read-out: CDK6 IC50): 8.29 nM

Compound: CN1CCN(c2ccc(Nc3ncc4cc(C(=O)N(C)C)n(C56CC(C5)C6)c4n3)cc2)CC1 [Compound A14, 7-(bicyclo[1.1.1]pentan-1-yl)-N,N-dimethyl-2-((4-(4-methylpiperazin-1-yl)phenyl)amino)-7H-pyrrolo[2,3-d]pyrimidine-6-carboxamide]
- IC50 (CDK6-CYCLIND3; CDK6 IC50, Table 2): 7.08 nM

Compound: CN(C)CCOc1ccc(Nc2ncc3cc(C(=O)N(C)C)n(C45CC(C4)C5)c3n2)nc1 [Compound A15, 7-(bicyclo[1.1.1]pentan-1-yl)-2-((5-(2-(dimethylamino)ethoxy)pyridin-2-yl)amino)-N,N-dimethyl-7H-pyrrolo[2,3-d]pyrimidine-6-carboxamide]
- IC50 (CDK4-CYCLIND1): 31.5 nM
- IC50 (CDK6-CYCLIND3; Table 2, read-out: CDK6 IC50): 23.8 nM

Compound: CN(C)C(=O)c1cc2cnc(Nc3ccc(N4CCNCC4)cc3)nc2n1C12CC(C1)C2 [Compound A16, 7-(bicyclo[1.1.1]pentan-1-yl)-N,N-dimethyl-2-((4-(piperazin-1-yl)phenyl)amino)-7H-pyrrolo[2,3-d]pyrimidine-6-carboxamide]
- IC50 (CDK4-CYCLIND1): 2.94 nM
- IC50 (CDK6-CYCLIND3; Table 2, read-out: CDK6 IC50): 7.68 nM

Compound: CN(C)C(=O)c1cc2cnc(Nc3ccc(N4CCNCC4)c(F)c3)nc2n1C12CC(C1)C2 [Compound A17, 7-(bicyclo[1.1.1]pentan-1-yl)-2-((3-fluoro-4-(piperazin-1-yl)phenyl)amino)-N,N-dimethyl-7H-pyrrolo[2,3-d]pyrimidine-6-carboxamide]
- IC50 (CDK4-CYCLIND1): 3.04 nM
- IC50 (CDK6-CYCLIND3; Table 2, read-out: CDK6 IC50): 8.04 nM

Compound: CN1CCN(c2cnc(Nc3ncc4c(F)c(C(=O)N(C)C)n(C5CCCC5)c4n3)cc2C(F)(F)F)CC1 [Compound A18, 7-cyclopentyl-5-fluoro-N,N-dimethyl-2-((5-(4-methylpiperazin-1-yl)-4-(trifluoromethyl)pyridin-2-yl)amino)-7H-pyrrolo[2,3-d]pyrimidine-6-carboxamide]
- IC50 (CDK4-CYCLIND1): 2740 nM
- IC50 (CDK6-CYCLIND3; Table 2, read-out: CDK6 IC50): 12600 nM

Compound: CN1CCN(c2ccc(Nc3ncc4c(F)c(C(=O)N(C)C)n(C5CCCC5)c4n3)cc2)CC1 [Compound A19, 7-cyclopentyl-5-fluoro-N,N-dimethyl-2-((4-(4-methylpiperazin-1-yl)phenyl)amino)-7H-pyrrolo[2,3-d]pyrimidine-6-carboxamide]
- IC50 (CDK4-CYCLIND1): 15.4 nM
- IC50 (CDK6-CYCLIND3; Table 2, read-out: CDK6 IC50): 45.3 nM

Compound: CN(C)C(=O)c1c(F)c2cnc(Nc3ccc(N4CCOCC4)c(F)c3)nc2n1C1CCCC1 [Compound A20, 7-cyclopentyl-5-fluoro-2-((3-fluoro-4-morpholinophenyl)amino)-N,N-dimethyl-7H-pyrrolo[2,3-d]pyrimidine-6-carboxamide]
- IC50 (CDK4-CYCLIND1): 33 nM
- IC50 (CDK6-CYCLIND3; Table 2, read-out: CDK6 IC50): 74.6 nM

Compound: CC(C)N1CC=C(c2ccc(Nc3ncc4c(F)c(C(=O)N(C)C)n(C5CCCC5)c4n3)nc2)CC1 [Compound A21, 7-cyclopentyl-5-fluoro-2-((1′-isopropyl-1′,2′,3′,6′-tetrahydro-[3,4′-bipyridin]-6-yl)amino)-N,N-dimethyl-7H-pyrrolo[2,3-d]pyrimidine-6-carboxamide]
- IC50 (CDK4-CYCLIND1): 51.2 nM
- IC50 (CDK6-CYCLIND3; Table 2, read-out: CDK6 IC50): 98.6 nM

Compound: CN(C)C(=O)c1c(F)c2cnc(Nc3ccc(C4=CCNCC4)cn3)nc2n1C1CCCC1 [Compound A22, 7-cyclopentyl-5-fluoro-N,N-dimethyl-2-((1′,2′,3′,6′-tetrahydro-[3,4′-bipyridin]-6-yl)amino)-7H-pyrrolo[2,3-d]pyrimidine-6-carboxamide]
- IC50 (CDK4-CYCLIND1): 41.7 nM
- IC50 (CDK6-CYCLIND3; Table 2, read-out: CDK6 IC50): 82 nM

Compound: CN(C)C(=O)c1cc2cnc(Nc3ccc(N4CCN(C#N)CC4)cn3)nc2n1C1CCCC1 [Compound A23, 2-((5-(4-cyanopiperazin-1-yl)pyridin-2-yl)amino)-7-cyclopentyl-N,N-dimethyl-7H-pyrrolo[2,3-d]pyrimidine-6-carboxamide]
- IC50 (CDK4-CYCLIND1): 34.3 nM
- IC50 (CDK6-CYCLIND3; Table 2, read-out: CDK6 IC50): 97 nM

Compound: CN(C)C(=O)c1cc2cnc(Nc3cc(C(F)(F)F)c(N4CCNCC4)cn3)nc2n1C1CCCC1 [Compound A24, 7-cyclopentyl-N,N-dimethyl-2-((5-(piperazin-1-yl)-4-(trifluoromethyl)pyridin-2-yl)amino)-7H-pyrrolo[2,3-d]pyrimidine-6-carboxamide]
- IC50 (CDK4-CYCLIND1): 457 nM
- IC50 (CDK6-CYCLIND3; Table 2, read-out: CDK6 IC50): 1430 nM

Compound: CN(C)C(=O)c1c(F)c2cnc(Nc3cc(C(F)(F)F)c(N4CCNCC4)cn3)nc2n1C1CCCC1 [Compound A25, 7-cyclopentyl-5-fluoro-N,N-dimethyl-2-((5-(piperazin-1-yl)-4-(trifluoromethyl)pyridin-2-yl)amino)-7H-pyrrolo[2,3-d]pyrimidine-6-carboxamide]
- IC50 (CDK4-CYCLIND1): 2290 nM
- IC50 (CDK6-CYCLIND3; Table 2, read-out: CDK6 IC50): 4860 nM

Compound: CN(C)C(=O)c1c(F)c2cnc(Nc3ccc(OCCN4CCCC4)nc3)nc2n1C1CCCC1 [Compound A26, 7-cyclopentyl-5-fluoro-N,N-dimethyl-2-((6-(2-(pyrrolidin-1-yl)ethoxy)pyridin-3-yl)amino)-7H-pyrrolo[2,3-d]pyrimidine-6-carboxamide]
- IC50 (CDK4-CYCLIND1): 39.3 nM
- IC50 (CDK6-CYCLIND3; Table 2, read-out: CDK6 IC50): 119 nM

Compound: CN(C)C(=O)c1c(F)c2cnc(Nc3ccc(OCCN4CCCCC4)nc3)nc2n1C1CCCC1 [Compound A27, 7-cyclopentyl-5-fluoro-N,N-dimethyl-2-((6-(2-(piperidin-1-yl)ethoxy)pyridin-3-yl)amino)-7H-pyrrolo[2,3-d]pyrimidine-6-carboxamide]
- IC50 (CDK4-CYCLIND1): 39.6 nM
- IC50 (CDK6-CYCLIND3; Table 2, read-out: CDK6 IC50): 116 nM

Compound: CC(C)N1CCN(c2ccc(Nc3ncc4cc(C(=O)N(C)C)n(C56CC(C5)C6)c4n3)cc2)CC1 [Compound A37, 7-(bicyclo[1.1.1]pentan-1-yl)-2-((4-(4-isopropylpiperazin-1-yl)phenyl)amino)-N,N-dimethyl-7H-pyrrolo[2,3-d]pyrimidine-6-carboxamide]
- IC50 (CDK4-CYCLIND1): 52000 nM
